These molecules were tested on HIV-1 (IIIB) in MT-4 cells (assay: MT-4 HIV assay). Conditions: Human immunodeficiency virus 1, MT4, 120 h; HIV-1 (IIIB), MT-4 cells, 5 days, Cell Titer Glo; read-out: EC50.
Format: cell-based
Protocol: Compounds were tested in a high-throughput 384-well assay format for their ability to inhibit the replication of HIV-1 (IIIB) in MT-4 cells. Compounds were serially diluted (1:3) in DMSO on 384-well polypropylene plates and further diluted 200-fold into complete RPMI media (10% FBS, 1% P/S) using the Biotek Micro Flow and Agilent ECHO acoustic dispenser. Each plate contained up to 8 test compounds, with negative (No Drug Control) and 5 uM AZT positive controls. MT-4 cells were pre-infected with 10 uL of either RPMI (mock-infected) or a fresh 1:250 dilution of an HIV-1 (IIIB) concentrated virus stock. Infected and uninfected MT-4 cells were further diluted in complete RPMI media and added to each plate using a Micro Flow dispenser. After 5 days incubation in a humidified and temperature controlled incubator (37° C.), Cell Titer Glo (Promega) was added to the assay plates to quantify the amount of luciferase.

| Structure (SMILES) | EC50 [nM] |
| --- | --- |
| COC(=O)N[C@H](C(=O)N[C@@H](Cc1ccc(C#Cc2ccc(N3CC4CC(C3)N4C3COC3)nc2)cc1)[C@@H](O)CN(Cc1c(F)cc(-c2ccc(N3CC4CC(C3)N4C3COC3)nc2)cc1F)NC(=O)[C@@H](NC(=O)OC)C(C)(C)C(F)(F)F)C(C)(C)C(F)(F)F [Example 38, Methyl ((5S,8S,9S,14S)-11-(2,6-difluoro-4-(6-(6-(oxetan-3-yl)-3,6-diazabicyclo[3.1.1]heptan-3-yl)pyridin-3-yl)benzyl)-16,16,16-trifluoro-9-hydroxy-15,15-dimethyl-8-(4-((6-(6-(oxetan-3-yl)-3,6-diazabicyclo[3.1.1]heptan-3-yl)pyridin-3-yl)ethynyl)benzyl)-3,6,13-trioxo-5-(1,1,1-trifluoro-2-methylpropan-2-yl)-2-oxa-4,7,11,12-tetraazahexadecan-14-yl)carbamate] | 6.13 |
| CC(=O)N[C@H](C(=O)N[C@@H](Cc1ccc(C#Cc2ccc(N3CC4CCC(C3)N4C3COC3)nc2)cc1)[C@@H](O)CN(Cc1c(F)cc(-c2ccn(C(F)F)n2)cc1F)NC(=O)[C@@H](NC(C)=O)C(C)(C)C(F)(F)F)C(C)(C)C(F)(F)F [Example 182, (2S)-2-acetamido-N-((2S,3S)-4-(2-((S)-2-acetamido-4,4,4-trifluoro-3,3-dimethylbutanoyl)-1-(4-(1-(difluoromethyl)-1H-pyrazol-3-yl)-2,6-difluorobenzyl)hydrazinyl)-3-hydroxy-1-(4-((6-(8-(oxetan-3-yl)-3,8-diazabicyclo[3.2.1]octan-3-yl)pyridin-3-yl)ethynyl)phenyl)butan-2-yl)-4,4,4-trifluoro-3,3-dimethylbutanamide] | 8.82 |
| COC(=O)N[C@H](C(=O)N[C@@H](Cc1ccc(C#Cc2ccc(N3CC4CCC(C3)N4CC3(C)COC3)nc2)cc1)[C@@H](O)CN(Cc1c(F)cc(-c2cnn(C(F)F)c2)cc1F)NC(=O)[C@@H](NC(=O)OC)C(C)(C)C(F)(F)F)C(C)(C)C(F)(F)F [Example 108, Methyl ((5S,8S,9S,14S)-11-(4-(1-(difluoromethyl)-1H-pyrazol-4-yl)-2,6-difluorobenzyl)-16,16,16-trifluoro-9-hydroxy-15,15-dimethyl-8-(4-((6-(8-((3-methyloxetan-3-yl)methyl)-3,8-diazabicyclo[3.2.1]octan-3-yl)pyridin-3-yl)ethynyl)benzyl)-3,6,13-trioxo-5-(1,1,1-trifluoro-2-methylpropan-2-yl)-2-oxa-4,7,11,12-tetraazahexadecan-14-yl)carbamate] | 7.23 |
| COC(=O)N[C@H](C(=O)NN(Cc1c(F)cc(-c2cnn(C(F)F)c2)cc1F)C[C@H](O)[C@H](Cc1ccc(C#Cc2ccc(N3CC4CCC(C3)N4C3COC3)nc2)cc1)NC(=O)[C@@H](NC(=O)OC)C(C)(C)C(F)(F)F)C(C)(C)CF [Example 80, Methyl ((5S,8S,9S,14S)-11-(4-(1-(difluoromethyl)-1H-pyrazol-4-yl)-2,6-difluorobenzyl)-16-fluoro-9-hydroxy-15,15-dimethyl-8-(4-((6-(8-(oxetan-3-yl)-3,8-diazabicyclo [3.2.1]octan-3-yl)pyridin-3-yl)ethynyl)benzyl)-3,6,13-trioxo-5-(1,1,1-trifluoro-2-methylpropan-2-yl)-2-oxa-4,7,11,12-tetraazahexadecan-14-yl)carbamate] | 3.13 |
| COC(=O)N[C@H](C(=O)NN(Cc1c(F)cc(-c2nnc(C3CC3)s2)cc1F)C[C@H](O)[C@H](Cc1ccc(C#Cc2ccc(N3CC4CCC(C3)N4C3COC3)nc2)cc1)NC(=O)[C@@H](NC(=O)OC)C(C)(C)C(F)(F)F)C(C)(C)C [Example 76, Methyl ((5S,8S,9S,14S)-11-(4-(5-cyclopropyl-1,3,4-thiadiazol-2-yl)-2,6-difluorobenzyl)-9-hydroxy-15,15-dimethyl-8-(4-((6-(8-(oxetan-3-yl)-3,8-diazabicyclo[3.2.1]octan-3-yl)pyridin-3-yl)ethynyl)benzyl)-3,6,13-trioxo-5-(1,1,1-trifluoro-2-methylpropan-2-yl)-2-oxa-4,7,11,12-tetraazahexadecan-14-yl)carbamate] | 3.53 |
| COC(=O)N[C@H](C(=O)N[C@@H](Cc1ccc(C#Cc2cnc(N3CC4CCC(C3)N4C3COC3)nc2)cc1)[C@@H](O)CN(Cc1c(F)cc(-c2ccn(C(F)F)n2)cc1F)NC(=O)[C@@H](NC(=O)OC)C12CC(C(F)(F)F)(C1)C2)C12CC(C(F)(F)F)(C1)C2 [Example 160, Methyl ((5S,8S,9S,14S)-11-(4-(1-(difluoromethyl)-1H-pyrazol-3-yl)-2,6-difluorobenzyl)-9-hydroxy-8-(4-((2-(8-(oxetan-3-yl)-3,8-diazabicyclo[3.2.1]octan-3-yl)pyrimidin-5-yl)ethynyl)benzyl)-3,6,13-trioxo-5,14-bis(3-(trifluoromethyl)bicyclo[1.1.1]pentan-1-yl)-2-oxa-4,7,11,12-tetraazatetradecan-14-yl)carbamate] | 5700 |
| COC(=O)N[C@H](C(=O)N[C@@H](Cc1ccc(C#Cc2ccc(N3CCN4CCOC[C@H]4C3)nc2)cc1)[C@@H](O)CN(Cc1c(F)cc(-c2ccn(C3CC3)n2)cc1F)NC(=O)[C@@H](NC(=O)OC)C(C)(C)C(F)(F)F)C(C)(C)C(F)(F)F [Example 136, methyl ((5S,8S,9S,14S)-11-(4-(1-cyclopropyl-1H-pyrazol-3-yl)-2,6-difluorobenzyl)-16,16,16-trifluoro-8-(4-((6-((R)-hexahydropyrazino[2,1-c][1,4]oxazin-8(1H)-yl)pyridin-3-yl)ethynyl)benzyl)-9-hydroxy-15,15-dimethyl-3,6,13-trioxo-5-(1,1,1-trifluoro-2-methylpropan-2-yl)-2-oxa-4,7,11,12-tetraazahexadecan-14-yl)carbamate] | 3.85 |
| CC(C)([C@H](NC(=O)OC1CC1)C(=O)N[C@@H](Cc1ccc(C#Cc2ccc(N3CC4CCC(C3)N4C3COC3)nc2)cc1)[C@@H](O)CN(Cc1c(F)cc(-c2ccn(C(F)F)n2)cc1F)NC(=O)[C@@H](NC(=O)OC1CC1)C(C)(C)C(F)(F)F)C(F)(F)F [Example 156, Cyclopropyl ((2S)-1-(2-((2S,3S)-3-((S)-2-((cyclopropoxycarbonyl)amino)-4,4,4-trifluoro-3,3-dimethylbutanamido)-2-hydroxy-4-(4-((6-(8-(oxetan-3-yl)-3,8-diazabicyclo[3.2.1]octan-3-yl)pyridin-3-yl)ethynyl)phenyl)butyl)-2-(4-(1-(difluoromethyl)-1H-pyrazol-3-yl)-2,6-difluorobenzyl)hydrazinyl)-4,4,4-trifluoro-3,3-dimethyl-1-oxobutan-2-yl)carbamate] | 17 |
| COC(=O)N[C@H](C(=O)N[C@@H](Cc1ccc(C#Cc2ccc(N3CCN4CCOC[C@H]4C3)nc2)cc1)[C@@H](O)CN(Cc1c(F)cc(-c2ccn(CC(F)F)n2)cc1F)NC(=O)[C@@H](NC(=O)OC)C(C)(C)C(F)(F)F)C(C)(C)C(F)(F)F [Example 10, Methyl ((5S,8S,9S,14S)-11-(4-(1-(2,2-difluoroethyl)-1H-pyrazol-3-yl)-2,6-difluorobenzyl)-16,16,16-trifluoro-8-(4-((6-((R)-hexahydropyrazino[2,1-c][1,4]oxazin-8(1H)-yl)pyridin-3-yl)ethynyl)benzyl)-9-hydroxy-15,15-dimethyl-3,6,13-trioxo-5-(1,1,1-trifluoro-2-methylpropan-2-yl)-2-oxa-4,7,11,12-tetraazahexadecan-14-yl)carbamate] | 3.46 |

Source: patent US10294234B2, “HIV inhibitor compounds” (priority 2017, dated 2019)
